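How tested: cells in 96-well plates exposed to compound for 48 hours at five concentrations. The concentration for full growth arrest is given as TGI.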
How the values were obtained:
Experiment in all cases: growth of human tumour cells (NCI), 48 h
[1] = tested on: M14 melanoma
[2] = tested on: HT29 colon
[3] = tested on: SF-295 CNS
[4] = tested on: MDA-MB-231 breast
[5] = tested on: SK-MEL-28 melanoma
[6] = tested on: U251 CNS
[7] = tested on: TK-10 renal
[8] = tested on: NCI-H460 lung
[9] = tested on: SNB-19 CNS
[10] = tested on: DU-145 prostate
[11] = tested on: OVCAR-3 ovarian
[12] = tested on: HCT-15 colon
[13] = tested on: COLO 205 colon
[14] = tested on: MALME-3M melanoma
[15] = tested on: KM12 colon
[16] = tested on: NCI/ADR-RES ovarian
[17] = tested on: HOP-62 NSCLC
[18] = tested on: SK-MEL-5 melanoma
[19] = tested on: RPMI-8226 leukemia
[20] = tested on: OVCAR-8 ovarian
[21] = tested on: OVCAR-4 ovarian
[22] = tested on: MDA-N
[23] = tested on: A549 NSCLC
[24] = tested on: SW-620 colon
[25] = tested on: LOX IMVI melanoma
[26] = tested on: SK-MEL-2 melanoma
[27] = tested on: A498 renal
[28] = tested on: CAKI-1 renal
[29] = tested on: K-562 leukemia
[30] = tested on: UACC-62 melanoma
[31] = tested on: 786-0 renal
[32] = tested on: SF-539 CNS
[33] = tested on: RXF 393 renal
[34] = tested on: OVCAR-5 ovarian
[35] = tested on: PC-3 prostate
[36] = tested on: T-47D breast
[37] = tested on: ACHN renal
[38] = tested on: HOP-92 NSCLC
[39] = tested on: SF-268 CNS
[40] = tested on: MDA-MB-435
[41] = tested on: SN12C renal
[42] = tested on: NCI-H522 lung
[43] = tested on: EKVX NSCLC
[44] = tested on: MOLT-4 leukemia
[45] = tested on: CCRF-CEM leukemia
[46] = tested on: SK-OV-3 ovarian
[47] = tested on: HL-60(TB) leukemia
[48] = tested on: HCC-2998 colon
[49] = tested on: NCI-H226 lung
[50] = tested on: HS 578T breast
[51] = tested on: MCF7 breast
[52] = tested on: BT-549 breast
[53] = tested on: UACC-257 melanoma
[54] = tested on: HCT-116 colon
[55] = tested on: IGROV1 ovarian
[56] = tested on: SR leukemia

Measured: TGI

N=c1n(C(=O)N2CCCC2)c2cc(Cl)ccc2n1C1=NCCN1
98.2 µM: [36]
> 100 µM: [1] | [2] | [3] | [4] | [5] | [6] | [7] | [8] | [9] | [10] | [11] | [12] | [13] | [14] | [15] | [16] | [17] | [18] | [19] | [20] | [21] | [22] | [23] | [24] | [25] | [26] | [27] | [28] | [29] | [30] | [31] | [32] | [33] | [34] | [35] | [37] | [38] | [39] | [40] | [41] | [42] | [43] | [44] | [45] | [46] | [47] | [48] | [49] | [50] | [51] | [52] | [53] | [54] | [55] | [56]
